The values that follow come from patent publication US20210177808A1, “INJECTABLE ISOXAZOLINE PHARMACEUTICAL COMPOSITIONS AND THEIR USE AGAINST PARASITE INFESTATION” (Intervet Inc., priority 2017, published 2021).

The subject of this experiment is Ctenocephalides felis fleas. Briefly: Flea efficacy on dogs approximately 6 months after treatment (Example 4B). Type of experiment: in vivo. As for the experimental part: The results from additional dose characterization studies are summarized. These studies evaluated three doses (10, 15 and 20 mg/kg) in adult dogs. The injectable suspension formulations of fluralaner were prepared is indicated in Example 1J above. One study tested the effectiveness against Rhipicephalus sanguineus ticks (see Table 7). A second study evaluated efficacy against fleas at approximately 6 months after treatment was tested in dogs (see Table 8).

Regarding `Cc1cc(C2=NOC(c3cc(Cl)cc(Cl)c3)(C(F)(F)F)C2)ccc1C(=O)NCC(=O)NCC(F)(F)F` (centres unmarked) [fluralaner, 4-[5-(3,5-Dichlorophenyl)-5-trifluoromethyl-4,5-dihydroisoxazol-3-yl]-2-methyl-N-[(2,2,2-trifluoro-ethylcarbamoyl)-methyl]-benzamide], the “Effectiveness in reducing live fleas on dogs” value (all three doses (10, 15, 20 mg/kg), 6 months following treatment) worked out at 100%. Further, where the note is “predicted because fleas are more sensitive to fluralaner than ticks”, the “Predicted duration of efficacy against fleas” value is reported as 12 months.
